Reference: ChEMBL document CHEMBL5634176, “Expression of Syo_1.56 SARP Regulator Unveils Potent Elasnin Derivatives with Antibacterial Activity” (J Nat Prod, 2024)
≈ marks a conversion by molar mass, not a printed value. Calls of active or inactive are those of the source. The rule behind the calls is not given here.

Assays:
Staphylococcus aureus [1] = assay: Antibacterial activity against methicillin resistant Staphylococcus aureus ATCC BAA-1718 by CLSI protocol based assay; format: functional
[2] = Cytotoxicity against human HL-60 cells incubated for 48 hrs by WST-8 assay; format: toxicity, cell-based
[3] = Inhibition of metallo-beta lactamase (unknown origin) by nitrocefin method; parameters: species or system Bacteria
Staphylococcus aureus [4] = assay: Antibacterial activity against methicillin sensitive Staphylococcus aureus FDA209P by CLSI protocol based assay; format: functional
Plasmodium falciparum = assay: Antimalarial activity against Plasmodium falciparum 3D7 infected in human erythrocytes measured after 72 hrs by absorbance based analysis; format: functional, organism-based; settings: 3D7, 72 h
Staphylococcus aureus [5] = assay: Antibacterial activity against methicillin resistant Staphylococcus aureus NCTC8173 by CLSI protocol based assay; format: functional
Escherichia coli [6] = assay: Antibacterial activity against Escherichia coli HO141 incubated for 24 hrs by absorbance based analysis; format: functional, organism-based; settings: HO141, 24 h
[7] = Cytotoxicity against human HeLa cells incubated for 48 hrs by WST-8 assay; format: toxicity, cell-based
Staphylococcus aureus [8] = assay: Antibacterial activity against Staphylococcus aureus 209 incubated for 24 hrs by absorbance based analysis; format: functional, organism-based; settings: Staphylococcus aureus, 209, 24 h
Staphylococcus aureus [9] = assay: Antibacterial activity against methicillin resistant Staphylococcus aureus 92-1191 by CLSI protocol based assay; format: functional
Staphylococcus aureus [10] = assay: Antibacterial activity against methicillin resistant Staphylococcus aureus ATCC BAA-1717 by CLSI protocol based assay; format: functional
Escherichia coli [11] = assay: Potentiation of meropenem induced antibacterial activity against drug-resistant Escherichia coli KB366 expressing metallo-betalactamase by agar disk diffusion method; format: functional, organism-based

Row | SMILES | MIC (Staphylococcus aureus [1]) [µg/mL] | IC50 at 48 h [2] [µg/mL] | IC50 [3] [µM] | MIC (Staphylococcus aureus [4]) [µg/mL] | IC50 (Plasmodium falciparum) [µg/mL] | MIC (Staphylococcus aureus [5]) [µg/mL] | IC50 (Escherichia coli [6]) [µg/mL] | IC50 at 48 h [7] [µg/mL] | IC50 (Staphylococcus aureus [8]) [µg/mL] | MIC (Staphylococcus aureus [9]) [µg/mL] | MIC (Staphylococcus aureus [10]) [µg/mL] | Activity (Escherichia coli [11])
1 | CCCCc1c(CCCC(C)C)oc(=O)c(CCCC)c1O | 7.5 (≈ 24.3 µM) | > 10 | > 100 | 15 (≈ 48.6 µM) | > 10 | 7.5 (≈ 24.3 µM) | > 10 | > 10 | 1.3 (≈ 4.21 µM) | 15 (≈ 48.6 µM) | 7.7 (≈ 25 µM) | 
2 | CCCCc1c([C@H](CCCC)C(=O)CCCC(C)C)oc(=O)c(CCC(C)C)c1O | 3 (≈ 7.13 µM) | 8.4 (≈ 20 µM) | 15.3 | 3 (≈ 7.13 µM) | 0.1 (≈ 0.238 µM) | 3 (≈ 7.13 µM) | > 10 | 8.4 (≈ 20 µM) | 1.1 (≈ 2.62 µM) | 6 (≈ 14.3 µM) | 3 (≈ 7.13 µM) | inactive
3 | CCCCCCCc1oc(=O)c(CCCC)c(O)c1CCCC | 8.1 (≈ 25.1 µM) | > 10 | > 100 | 16 (≈ 49.6 µM) | 0.1 (≈ 0.31 µM) | 8.1 (≈ 25.1 µM) | > 10 | > 10 | 2.6 (≈ 8.06 µM) | 8.1 (≈ 25.1 µM) | 16 (≈ 49.6 µM) | 
4 | CCCCc1c([C@H](CCCC)C(=O)CCC(C)C)oc(=O)c(CCCC)c1O | 5 (≈ 12.7 µM) | > 10 | > 100 | 10 (≈ 25.5 µM) | 9.4 (≈ 23.9 µM) | 5 (≈ 12.7 µM) | > 10 | > 10 | 1 (≈ 2.55 µM) | 10 (≈ 25.5 µM) | 5 (≈ 12.7 µM) | 
5 | CCCCCC(=O)[C@@H](CCCC)c1oc(=O)c(CC(C)C)c(O)c1CCCC | 10 (≈ 25.5 µM) | > 10 | > 100 | 10 (≈ 25.5 µM) | > 10 | 10 (≈ 25.5 µM) | > 10 | > 10 | 1.6 (≈ 4.08 µM) | 20 (≈ 50.9 µM) | 10 (≈ 25.5 µM) | 
6 | CCCCc1c(O)c(CCC(C)C)c([C@H](CCCC)C(=O)CCCC(C)C)oc1=O | 2.5 (≈ 5.94 µM) | 5.5 (≈ 13.1 µM) | > 100 | 2.5 (≈ 5.94 µM) | 6.3 (≈ 15 µM) | 2.5 (≈ 5.94 µM) | > 10 | 6.3 (≈ 15 µM) | 0.5 (≈ 1.19 µM) | 2.5 (≈ 5.94 µM) | 2.5 (≈ 5.94 µM) | 
7 | CCCCc1c([C@H](CCC(C)C)C(=O)CCCC(C)C)oc(=O)c(CCCC)c1O | 2.5 (≈ 5.94 µM) | 9.3 (≈ 22.1 µM) | > 100 | 5 (≈ 11.9 µM) | 7.7 (≈ 18.3 µM) | 2.5 (≈ 5.94 µM) | > 10 | 8.9 (≈ 21.2 µM) | 0.5 (≈ 1.19 µM) | 5 (≈ 11.9 µM) | 2.5 (≈ 5.94 µM) | 
8 | CCCCCCc1c(O)c(CCCC)c([C@H](CCCC)C(=O)CCCCC)oc1=O | 2.5 (≈ 5.94 µM) | 8.4 (≈ 20 µM) | > 100 | 2.5 (≈ 5.94 µM) | 8 (≈ 19 µM) | 2.5 (≈ 5.94 µM) | > 10 | 7.6 (≈ 18.1 µM) | 0.8 (≈ 1.9 µM) | 2.5 (≈ 5.94 µM) | 2.5 (≈ 5.94 µM) | 
9 | CCCCCC(=O)[C@@H](CCCC)c1oc(=O)c(CCC(C)C)c(O)c1CCCC | 3 (≈ 7.38 µM) | 4.9 (≈ 12.1 µM) | 10.8 | 6 (≈ 14.8 µM) | 1.3 (≈ 3.2 µM) | 3 (≈ 7.38 µM) | > 10 | 7.3 (≈ 18 µM) | 0.7 (≈ 1.72 µM) | 6 (≈ 14.8 µM) | 6 (≈ 14.8 µM) | inactive
10 | C[C@H](CS)C(=O)N1CCC[C@H]1C(=O)O [CAPTOPRIL] |  |  | 69 |  |  |  |  |  |  |  |  | 
11 | CCCCCC(=O)[C@@H](CCCC)c1oc(=O)c(CCCC)c(O)c1CCCC | 5 (≈ 12.7 µM) | > 10 | 24.1 | 5 (≈ 12.7 µM) | 2.3 (≈ 5.86 µM) | 5 (≈ 12.7 µM) | > 10 | > 10 | 0.7 (≈ 1.78 µM) | 5 (≈ 12.7 µM) | 5 (≈ 12.7 µM) | inactive
12 | C[C@@H](O)[C@H]1C(=O)N2C(C(=O)O)=C(S[C@@H]3CN[C@H](C(=O)N(C)C)C3)[C@H](C)[C@H]12 [MEROPENEM] | 0.125 (≈ 0.326 µM) |  |  | 0.031 (≈ 0.0808 µM) |  | 0.125 (≈ 0.326 µM) |  |  |  | 256 (≈ 668 µM) | 16 (≈ 41.7 µM) | 
13 | CCCCCc1oc(=O)c(CCCC)c(O)c1CCCC | 15 (≈ 50.9 µM) | > 10 | > 100 | 15 (≈ 50.9 µM) | 1.9 (≈ 6.45 µM) | 15 (≈ 50.9 µM) | > 10 | > 10 | 1.3 (≈ 4.42 µM) | 15 (≈ 50.9 µM) | 15 (≈ 50.9 µM) | 
14 | CCCCCC(=O)[C@@H](CCC(C)C)c1oc(=O)c(CCCC)c(O)c1CCCC | 5 (≈ 12.3 µM) | 9.7 (≈ 23.9 µM) | > 100 | 5 (≈ 12.3 µM) | 6.9 (≈ 17 µM) | 2.5 (≈ 6.15 µM) | > 10 | 9.7 (≈ 23.9 µM) | 0.5 (≈ 1.23 µM) | 5 (≈ 12.3 µM) | 2.5 (≈ 6.15 µM) | 
